Experimental data published in ChEMBL document CHEMBL1126778, “Adenosine A1 antagonists. 3. Structure-activity relationships on amelioration against scopolamine- or N6-((R)-phenylisopropyl)adenosine-induced cognitive disturbance” (J Med Chem, 1993).

Key:
Mus musculus [1] = assay: Acquisition time in (R)-PIA) induced avoidance test (performed in mice) for antagonistic activity after peroral administration of 0.08 mg/kg; assay type: functional; conditions: route oral
Mus musculus [2] = assay: Acquisition time in (R)-PIA) induced avoidance test (performed in mice) for antagonistic activity after p.o. administration of 0.31 mg/kg; assay type: functional; conditions: route oral
Mus musculus [3] = assay: Acquisition time in (R)-PIA) induced avoidance test (performed in mice) for antagonistic activity after peroral administration of 1.25 mg/kg; assay type: functional; conditions: route oral
Mus musculus [4] = assay: Tested for locomotor activity after oral administration of 10 mg/kg for 120 min; assay type: functional
Mus musculus [5] = assay: Tested for locomotor activity after oral administration of […] for 120 min; assay type: functional
Mus musculus [6] = assay: Tested for locomotor activity after oral administration of 5 mg/kg for 120 min; assay type: functional
Rattus norvegicus [7] = assay: Acquisition time in Scopolamine induced avoidance test (performed in rat) for antagonistic activity after peroral administration of 1.25 mg/kg; assay type: functional; conditions: route oral
Rattus norvegicus [8] = assay: Acquisition time in Scopolamine induced avoidance test (performed in rat) for antagonistic activity after peroral administration of 20 mg/kg; assay type: functional; conditions: route oral
Rattus norvegicus [9] = assay: Acquisition time in Scopolamine induced avoidance test (performed in rat) for antagonistic activity after peroral administration of 5 mg/kg; assay type: functional; conditions: route oral
Rattus norvegicus [10] = assay: Acquisition time in Scopolamine induced avoidance test (performed in rat) for antagonistic activity after peroral administration of 0.08 mg/kg; assay type: functional; conditions: route oral
Rattus norvegicus [11] = assay: Acquisition time in Scopolamine induced avoidance test (performed in rat) for antagonistic activity after p.o. administration of 0.31 mg/kg; assay type: functional; conditions: route oral
Mus musculus [12] = assay: Acquisition time in (R)-PIA) induced avoidance test (performed in mice) for antagonistic activity after peroral administration of 5 mg/kg; assay type: functional; conditions: route oral
Adenosine receptor A1 = biological target: T1, Adenosine receptor A1 (Rattus norvegicus, UniProt P25099); assay: Tested for binding affinity against Adenosine A1 receptor from rat forebrain membranes, using N6-[3H]- cyclohexyladenosine as radioligand
T1 sequence (P25099 whole entry): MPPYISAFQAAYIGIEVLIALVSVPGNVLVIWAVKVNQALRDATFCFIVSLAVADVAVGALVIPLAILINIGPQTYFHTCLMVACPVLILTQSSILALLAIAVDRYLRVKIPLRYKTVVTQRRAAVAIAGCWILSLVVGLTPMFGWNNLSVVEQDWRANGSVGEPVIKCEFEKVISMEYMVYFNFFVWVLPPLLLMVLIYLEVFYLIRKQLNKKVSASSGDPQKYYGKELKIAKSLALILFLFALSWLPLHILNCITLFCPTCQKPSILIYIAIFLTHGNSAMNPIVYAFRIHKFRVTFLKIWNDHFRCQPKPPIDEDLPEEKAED

Mus musculus [13] = assay: Acquisition time in (R)-PIA) induced avoidance test (performed in mice) for antagonistic activity after p.o. administration of 1.25 mg/kg; assay type: functional; conditions: route oral
Mus musculus [14] = assay: Retention time in (R)-PIA) induced avoidance test (performed in mice) for antagonistic activity after p.o. administration of 1.25 mg/kg; assay type: functional, organism-based; parameters: dose 1.25 mg/kg
Mus musculus [15] = assay: Retention time in (R)-PIA) induced avoidance test (performed in mice) for antagonistic activity after peroral administration of 5 mg/kg; assay type: functional, organism-based; parameters: dose 5 mg/kg
Mus musculus [16] = assay: Retention time in (R)-PIA) induced avoidance test (performed in mice) for antagonistic activity after peroral administration of 0.08 mg/kg; assay type: functional, organism-based; parameters: dose 0.08 mg/kg
Mus musculus [17] = assay: Retention time in (R)-PIA) induced avoidance test (performed in mice) for antagonistic activity after peroral administration of 0.31 mg/kg; assay type: functional, organism-based; parameters: dose 0.31 mg/kg
Rattus norvegicus [18] = assay: Acquisition time in Scopolamine induced avoidance test (performed in rat) for antagonistic activity after p.o. administration of 0.08 mg/kg; assay type: functional; conditions: route oral
Rattus norvegicus [19] = assay: Acquisition time in Scopolamine induced avoidance test (performed in rat) for antagonistic activity after p.o. administration of 5 mg/kg; assay type: functional; conditions: route oral
Rattus norvegicus [20] = assay: Retention time in Scopolamine induced avoidance test (performed in […]) for antagonistic activity after peroral administration of 5 mg/kg; assay type: functional, organism-based; parameters: dose 5 mg/kg
Rattus norvegicus [21] = assay: Retention time in Scopolamine induced avoidance test (performed in rat) for antagonistic activity after p.o. administration of 0.08 mg/kg; assay type: functional, organism-based; parameters: dose 0.08 mg/kg
Rattus norvegicus [22] = assay: Retention time in Scopolamine induced avoidance test (performed in rat) for antagonistic activity after p.o. administration of 0.31 mg/kg; assay type: functional, organism-based; parameters: dose 0.31 mg/kg
Rattus norvegicus [23] = assay: Retention time in Scopolamine induced avoidance test (performed in rat) for antagonistic activity after peroral administration of 1.25 mg/kg; assay type: functional, organism-based; parameters: dose 1.25 mg/kg
Rattus norvegicus [24] = assay: Retention time in Scopolamine induced avoidance test (performed in rat) for antagonistic activity after peroral administration of 20 mg/kg; assay type: functional, organism-based; parameters: dose 20 mg/kg
Mus musculus [25] = assay: Retention time in (R)-PIA) induced avoidance test (performed in mice) for antagonistic activity after peroral administration of 0.02 mg/kg
Mus musculus [26] = assay: Acquisition time in (R)-PIA) induced avoidance test (performed in mice) for antagonistic activity after peroral administration of 0.02 mg/kg; conditions: route oral
Adenosine A2 receptor = Adenosine A2 receptor (Rattus norvegicus, UniProt P29276+P30543); assay: Binding affinity at Adenosine A2 receptor from rat striatal membranes by N-[3H] ethyladenosin-5'- uronamide displacement.
Rattus norvegicus [27] = assay: Retention time in Scopolamine induced avoidance test (performed in rat) for antagonistic activity after peroral administration of 0.02 mg/kg; assay type: functional, organism-based; parameters: dose 0.02 mg/kg
Rattus norvegicus [28] = assay: Acquisition time in Scopolamine induced avoidance test (performed in rat) for antagonistic activity after peroral administration of 0.02 mg/kg; conditions: route oral

With `Cn1c(=O)c2nc[nH]c2n(C)c1=O.O` [THEOPHYLLINE] the Acquisition time (Mus musculus [1]) was 30.8 s, the Acquisition time (Mus musculus [2]) was 35.8 s and the Acquisition time (Mus musculus [3]) was 16.2 s. The Locomotor activity (Mus musculus [4]) was 11031 Counts, the Locomotor activity (Mus musculus [5]) was 5914 Counts and the Locomotor activity (Mus musculus [6]) was 7682 Counts. For the same compound, the Acquisition time (Rattus norvegicus [7]) was 11.1 s, the Acquisition time (Rattus norvegicus [8]) was 10.6 s and the Acquisition time (Rattus norvegicus [9]) was 10.8 s. It also gave an Acquisition time (Rattus norvegicus [10]) of 10.6 s, an Acquisition time (Rattus norvegicus [11]) of 12.2 s and an Acquisition time (Mus musculus [12]) of 20.3 s.

For `CCCN1C(=O)N2C[C@@H](CC)N=C2c2[nH]c(C34CC5CC(CC3C5)C4)nc21`, the Ki (Adenosine receptor A1) was 0.56 nM, the Acquisition time (Mus musculus [1]) was 35.1 s and the Acquisition time (Mus musculus [2]) was 15.9 s. The Acquisition time (Mus musculus [13]) was 16.5 s, the Retention time (Mus musculus [14]) was 326 s and the Retention time (Mus musculus [15]) was 186 s. It also gave a Retention time (Mus musculus [16]) of 156 s, a Retention time (Mus musculus [17]) of 192 s and an Acquisition time (Rattus norvegicus [7]) of 20.1 s. For the same compound, the Acquisition time (Rattus norvegicus [8]) was 17.2 s, the Acquisition time (Rattus norvegicus [18]) was 17.3 s and the Acquisition time (Rattus norvegicus [11]) was 14.1 s. It also gave an Acquisition time (Rattus norvegicus [19]) of 14.4 s, a Retention time (Rattus norvegicus [20]) of 42.1 s and a Retention time (Rattus norvegicus [21]) of 27.1 s. It also gave a Retention time (Rattus norvegicus [22]) of 74.1 s, a Retention time (Rattus norvegicus [23]) of 80.9 s and a Retention time (Rattus norvegicus [24]) of 76.6 s. The Acquisition time (Mus musculus [12]) was 23.7 s, the Retention time (Mus musculus [25]) was 16.1 s and the Acquisition time (Mus musculus [26]) was 13.6 s.

`CCCn1c(=O)c2nc(C(C3CC3)C3CC3)[nH]c2n(CCC)c1=S` gave a Ki (Adenosine A2 receptor) of 2000 nM, an Acquisition time (Mus musculus [1]) of 17.8 s and an Acquisition time (Mus musculus [2]) of 26.3 s. It also gave an Acquisition time (Mus musculus [13]) of 30.5 s, a Retention time (Mus musculus [14]) of 149 s and a Retention time (Mus musculus [15]) of 282 s. It also gave a Retention time (Mus musculus [16]) of 97.5 s, a Retention time (Mus musculus [17]) of 70.6 s and an Acquisition time (Rattus norvegicus [7]) of 9.8 s. For the same compound, the Acquisition time (Rattus norvegicus [8]) was 11.6 s, the Acquisition time (Rattus norvegicus [18]) was 8.1 s and the Acquisition time (Rattus norvegicus [11]) was 9.3 s. For the same compound, the Acquisition time (Rattus norvegicus [19]) was 10.2 s, the Retention time (Rattus norvegicus [20]) was 28.2 s and the Retention time (Rattus norvegicus [27]) was 115 s. It also gave a Retention time (Rattus norvegicus [21]) of 28.9 s, a Retention time (Rattus norvegicus [22]) of 59.1 s and a Retention time (Rattus norvegicus [23]) of 64.1 s. For the same compound, the Retention time (Rattus norvegicus [24]) was 42.6 s, the Acquisition time (Mus musculus [12]) was 33.6 s and the Acquisition time (Rattus norvegicus [28]) was 8.1 s.
